Measured values as given in PubChem BioAssay AID248 (DTP/NCI, 2004).
“And” between values parts separate entries of the source, which are not always exact repeats. Equal values may be shown once. Inconclusive results and toxic doses are left out. No stated cut-off is given here; in the data, active means T/C of 150% or more; inactive means T/C below 125%.

Test system: L1210 leukemia ip in BDF1 mice, survival T/C
Assay: NCI In Vivo Anticancer Drug Screen. Data for tumor model L1210 Leukemia (intraperitoneal) in B6D2F1 (BDF1) mice
Details: endpoint: mean survival time, higher = longer survival
Summary of the method: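 Tumor was transplanted into mice, which were then dosed with test compound or vehicle alone. Survival was recorded for each group, and the treated figure was expressed relative to the control figure.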

[1] = dose: 25.0 mg/kg/injection, schedule: Q04DX003 (ip), vehicle: Klucel (hydroxypropylcellulose) (HPC)
[2] = dose: 50.0 mg/kg/injection, schedule: Q04DX003 (ip), vehicle: Klucel (hydroxypropylcellulose) (HPC)
[3] = dose: 100.0 mg/kg/injection, schedule: Q04DX003 (ip), vehicle: Klucel (hydroxypropylcellulose) (HPC)
[4] = dose: 100.0 mg/kg/injection, schedule: Q04DX002 (ip), vehicle: Klucel (hydroxypropylcellulose) (HPC)
[5] = dose: 200.0 mg/kg/injection, schedule: Q04DX002 (ip), vehicle: Klucel (hydroxypropylcellulose) (HPC)
[6] = dose: 400.0 mg/kg/injection, schedule: Q04DX002 (ip), vehicle: Klucel (hydroxypropylcellulose) (HPC)
[7] = dose: 100.0 mg/kg/injection, schedule: Q04DX003 (ip), vehicle: saline with Tween-80
[8] = dose: 200.0 mg/kg/injection, schedule: Q04DX003 (ip), vehicle: saline with Tween-80
[9] = dose: 400.0 mg/kg/injection, schedule: Q04DX003 (ip), vehicle: saline with Tween-80
[10] = dose: 100.0 mg/kg/injection, schedule: Q01DX001 (ip), vehicle: saline
[11] = dose: 200.0 mg/kg/injection, schedule: Q01DX001 (ip), vehicle: saline
[12] = dose: 400.0 mg/kg/injection, schedule: Q01DX001 (ip), vehicle: saline
[13] = dose: 100.0 mg/kg/injection, schedule: Q01DX009 (ip), vehicle: Klucel (hydroxypropylcellulose) (HPC)
[14] = dose: 200.0 mg/kg/injection, schedule: Q01DX009 (ip), vehicle: Klucel (hydroxypropylcellulose) (HPC)
[15] = dose: 400.0 mg/kg/injection, schedule: Q04DX003 (ip), vehicle: Klucel (hydroxypropylcellulose) (HPC)

Measured: T/C

NNC(=O)c1cccs1
inactive: dose: 25.0 mg/kg/injection, schedule: Q01DX009 (ip), vehicle: Klucel (hydroxypropylcellulose) (HPC) 100 % of control | [1] 95 % of control | dose: 50.0 mg/kg/injection, schedule: Q01DX001 (ip), vehicle: carboxymethylcellulose (CMC) 100 % of control | dose: 50.0 mg/kg/injection, schedule: Q01DX009 (ip), vehicle: Klucel (hydroxypropylcellulose) (HPC) 103 % of control | [2] 95 % of control | [3] 101 % of control

CCCCCS(=O)(=O)N1CCCC1
inactive: [4] 107 % of control | [5] 103 % of control | [6] 111 % of control

CCN(C1CCCCC1)C1CCCCC1
inactive: dose: 25.0 mg/kg/injection, schedule: Q01DX009 (ip), vehicle: saline 100 % of control | dose: 50.0 mg/kg/injection, schedule: Q01DX009 (ip), vehicle: saline 98 % of control | dose: 100.0 mg/kg/injection, schedule: Q01DX009 (ip), vehicle: saline 107 % of control

O=[N+]([O-])c1cc(N(c2ccccc2)c2ccccc2)c(Cl)cc1Cl
inactive: dose: 100.0 mg/kg/injection, schedule: Q01DX001 (ip), vehicle: carboxymethylcellulose (CMC) 111 % of control | dose: 200.0 mg/kg/injection, schedule: Q01DX001 (ip), vehicle: carboxymethylcellulose (CMC) 103 % of control | dose: 400.0 mg/kg/injection, schedule: Q01DX001 (ip), vehicle: carboxymethylcellulose (CMC) 95 % of control

CN(C)/C=N/N1CCCCCC1
inactive: dose: 100.0 mg/kg/injection, schedule: Q04DX003 (ip), vehicle: saline 98 % of control

O=C(O)CSc1nc2ccccc2[nH]1
inactive: [7] 100 % of control | [8] 96 % of control | [9] 88 % of control

ClC(Cl)(Cl)C1OCCOCCO1
inactive: [4] 93 % of control | [5] 97 % of control | [6] 107 % of control

NC/C=N/N=C(N)N
inactive: dose: 15.0 mg/kg/injection, schedule: Q01DX Z (ip), vehicle: saline 97 % of control | dose: 30.0 mg/kg/injection, schedule: Q01DX Z (ip), vehicle: saline 96 % of control | dose: 60.0 mg/kg/injection, schedule: Q01DX Z (ip), vehicle: saline 94 % of control | dose: 120.0 mg/kg/injection, schedule: Q01DX Z (ip), vehicle: saline 87 % of control | dose: 120.0 mg/kg/injection, schedule: Q01DX Z (oral), vehicle: saline 101 % of control | dose: 240.0 mg/kg/injection, schedule: Q01DX Z (oral), vehicle: saline 101 % of control | dose: 480.0 mg/kg/injection, schedule: Q01DX Z (oral), vehicle: saline 103 % of control | dose: 960.0 mg/kg/injection, schedule: Q01DX Z (oral), vehicle: saline 98 % of control

Nc1ccc(S(=O)(=O)C(Cl)c2ccccc2)cc1 (stereo not drawn)
inactive: [10] 104 % of control | [11] 102 % of control | [12] 104 % of control

CN(CC(O)COc1ccccc1)CC1CCCO1 (stereo not drawn)
inactive: [1] 98 % of control | [2] 97 % of control | [3] 95 % of control and 98 % of control

COc1ccc(C(=C2CCCCC2)c2ccc(OC)cc2)cc1
inactive: dose: 100.0 mg/kg/injection, schedule: Q01DX001 (ip), vehicle: saline with Tween-80 95 % of control | dose: 200.0 mg/kg/injection, schedule: Q01DX001 (ip), vehicle: saline with Tween-80 94 % of control | dose: 400.0 mg/kg/injection, schedule: Q01DX001 (ip), vehicle: saline with Tween-80 88 % of control

CC(=O)OC(C)C(=O)C1=C2CCCN2CCc2cc3c(cc21)OCO3 (stereo not drawn)
inactive: [4] 103 % of control | [5] 103 % of control | [6] 103 % of control

CCCCCCCCCC(F)CCCCCCCC(=O)O (stereo not drawn) (tested in a mixture with another compound)
inactive: [10] 91 % of control | [11] 91 % of control | [12] 95 % of control

C1CCCC(NNC2CCCCCCC2)CCC1
inactive: [10] 94 % of control

CCC(C)c1cc([N+](=O)[O-])cc([N+](=O)[O-])c1O (stereo not drawn)
inactive: dose: 12.5 mg/kg/injection, schedule: Q04DX003 (ip), vehicle: Klucel (hydroxypropylcellulose) (HPC) 95 % of control | [1] 98 % of control | [2] 96 % of control

COc1ccc(C(=O)/C=C/c2ccc3c(c2)OCO3)cc1OC
inactive: [13] 87 % of control | [3] 98 % of control | [14] 90 % of control | dose: 200.0 mg/kg/injection, schedule: Q04DX003 (ip), vehicle: Klucel (hydroxypropylcellulose) (HPC) 98 % of control | dose: 400.0 mg/kg/injection, schedule: Q01DX009 (ip), vehicle: Klucel (hydroxypropylcellulose) (HPC) 90 % of control | [15] 96 % of control

Cc1c(Cl)cccc1N1C(=O)CC(Sc2ccccc2N)C1=O (stereo not drawn)
inactive: [13] 95 % of control | dose: 100.0 mg/kg/injection, schedule: Q01DX009 (ip), vehicle: saline with Tween-80 106 % of control | [3] 92 % of control | [7] 94 % of control | [14] 92 % of control | dose: 200.0 mg/kg/injection, schedule: Q01DX009 (ip), vehicle: saline with Tween-80 107 % of control | [8] 88 % of control | dose: 400.0 mg/kg/injection, schedule: Q01DX009 (ip), vehicle: saline with Tween-80 109 % of control | [15] 89 % of control | [9] 93 % of control

CC(C)[N+](=O)[O-]
inactive: dose: 62.5 mg/kg/injection, schedule: Q01DX001 (ip), vehicle: Klucel (hydroxypropylcellulose) (HPC) 104 % of control | dose: 125.0 mg/kg/injection, schedule: Q01DX001 (ip), vehicle: Klucel (hydroxypropylcellulose) (HPC) 114 % of control | dose: 250.0 mg/kg/injection, schedule: Q01DX001 (ip), vehicle: Klucel (hydroxypropylcellulose) (HPC) 101 % of control
